The source of these data is US20240199997A1, “COMPOSITIONS COMPRISING A META-(C1-C4 ALKOXY) […]” (The Procter & Gamble Company, priority 2022, published 2024).

Data set [1] can be described thus: Headspace Method (dynamic headspace GC/MS), solution in propylene glycol monomethyl ether (DPM). The format is physicochemical. As to conditions: for Air/DPM partition coef (ng/mL in air per ng/mL in DPM) / Headspace: 30° C.; for Headspace: above DPM solution of 1.1E+07 ng/mL. The method, then: (§1) Perfume headspace data is collected for various materials according to the method provided below.
(§2) The partition coefficients are calculated by determining the amount of PRM in the headspace above a solution with a known concentration using a GC/FID-MS (Agilent 7890 and 5977A MSD) with a thermal desorption unit (Gerstel MPS2) and Dynamic Headspace Sampler (Gerstel DHS). This technique allows for automated headspace collections using the MultiPurposeSampler (MPS). The PRMs of interest are prepared at a known concentration in isopropyl myristate (IPM) or propylene glycol monomethyl ether (DPM), and 1 mL is pipetted in a 20 mL headspace vial.
(§3) DHS Conditions: The sample is tempered in the unit at 30° C. A helium stream at 10 mls/min purges 20 mL of headspace containing the analytes above the sample onto the sorbent tube (TDU) containing 25 mg of TenaxTA 35/60 (Restek cat #25701).
(§4) TDU conditions: The sorbent tube is desorbed with a program starting at 30° C. solvent vent for 2 min then ramped at 720° C./min to 270° C. and held for 8 min. The analytes are refocused on a glass bead liner at −60° C. then desorbed at a rate of 12° C./s to 270° C. onto the GC column.
(§5) GC/MS conditions: Agilent 122-5532UI column of 30 m×250 μm×0.25 μm and a flow rate of 1.5mL/min is utilized. A temperature program of 50° C. to 280° C. with a 2 min hold and a ramp rate of 12° C./min is suitable. Scan or SIM mode MSD parameters with a solvent delay for the DPM are applied to achieve appropriate detection.
(§6) Analytical standards can be obtained from Sigma Aldrich, St. Louis, MO and BioSynth, UK. A stock solution is prepared at approximately 0.5 g/L. The stock solution is then diluted to 4 to 5 concentrations ranging from approximately 0.05 g/L to 0.00005 g/L. These standard solutions are then analyzed by GC/MS. This analysis is performed by using the same TDU desorption and GC/MS conditions described above with a 1 uL liquid injection onto the TDU tube instead of the DHS collection. The amount injected on column and the area responses of the target m/z are utilized to create a calibration plot with a linear fit.
(§7) Quantification of the headspace is performed by the PRM target m/z area response of the perfume component and the linear equation of the calibration plot.
(§8) Perfume headspace data is collected for various materials according to the Headspace Method provided above in the Test Methods section. The Air/Solvent partition coefficients are determined and indexed accordingly (e.g., where the partition coefficient for ethylvanillin is set at 1.00).

Data set [2] is described as follows: Headspace Method (dynamic headspace GC/MS), solution in isopropyl myristate (IPM). The format is physicochemical. As to conditions: for Air/IPM partition coef (ng/mL in air per ng/mL in IPM) / Headspace: 30° C.; for Headspace: above IPM solution of about 2.1E+06 ng/mL. The method, then: as §1, §2, §3, §4, §5, §6, §7, §8

Read-outs that look alike come from different tables or passages of the source.

Consider `CCOc1cc(C=O)ccc1O` [Ethylvanillin], for which, in data set [1] (average of three replicates), the “Air/DPM partition coef (ng/mL in air per ng/mL in DPM)” value is 2.45E−09 ng/mL in air per ng/mL in DPM and the “Headspace” value is listed as 0.0262 ng/mL. Moreover, the “Ethylvanillin Indexed Air/DPM partition coefficient” value in data set [1] (partition coefficient for ethylvanillin set at 1.00, average of three replicates) is 1.00. Moreover, in data set [2] (average of two replicates), the “Air/IPM partition coef (ng/mL in air per ng/mL in IPM)” value is on record as 1.95E−08 ng/mL in air per ng/mL in IPM and the “Headspace” value stood at 0.0402 ng/mL. In addition, the “Ethylvanillin Indexed Air/IPM partition coefficient” value in data set [2] (partition coefficient for ethylvanillin set at 1.00, average of two replicates) turned out to be 1.00.

On to `COc1cc(C=O)ccc1O` [Vanillin], for which, in data set [1] (average of three replicates), the “Air/DPM partition coef (ng/mL in air per ng/mL in DPM)” value is 1.21E−08 ng/mL in air per ng/mL in DPM and the “Headspace” value stood at 0.1288 ng/mL. The “Ethylvanillin Indexed Air/IPM partition coefficient” value in data set [2] is on record as 1.40. Further, in data set [2] (average of two replicates), the “Air/IPM partition coef (ng/mL in air per ng/mL in IPM)” value was 2.73E−08 ng/mL in air per ng/mL in IPM and the “Headspace” value was found to be 0.0563 ng/mL.

`CCOc1cccc(C=O)c1O` [ortho-Ethylvanillin, 2-hydroxy-3-ethoxybenzaldehyde]: in data set [1] (average of three replicates), the “Air/DPM partition coef (ng/mL in air per ng/mL in DPM)” value was 2.31E−07 ng/mL in air per ng/mL in DPM and the “Headspace” value worked out at 2.4678 ng/mL. The “goes into the headspace more than ethylvanillin” value in data set [1] (out of DPM) is listed as “about 94 ×”. Also, in data set [2] (average of two replicates), the “Air/IPM partition coef (ng/mL in air per ng/mL in IPM)” value was 1.21E−07 ng/mL in air per ng/mL in IPM and the “Headspace” value was determined as 0.2521 ng/mL. Moreover, in data set [2] (out of IPM), the “goes into the headspace more than its structural isomer ethylvanillin” value was “about 6.2 ×”.
